The results in this text go back to patent US12275731B2, “Azaindole inhibitors of wild-type and mutant forms of LRRK2” (DANA-FARBER CANCER INSTITUTE, INC., priority 2018, dated 2025).

Holding throughout (experiment): KinomeScan profiling
Holding throughout (format): binding

For experiment [1], the target named is PRKR (Homo sapiens, UniProt P19525). Conditions: read-out: % control. Put shortly:
(§1)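 First, compounds in DMSO are added at 1 μM to each of 468 kinase assays. Next, RLU signals are normalised between positive control (0%) and DMSO (100%). Finally, kinases under 35% are flagged active.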

Experiment [2] concerns the target T1, MAP3K2 (Homo sapiens, UniProt Q9Y2U5).
T1 sequence (Q9Y2U5 1-619): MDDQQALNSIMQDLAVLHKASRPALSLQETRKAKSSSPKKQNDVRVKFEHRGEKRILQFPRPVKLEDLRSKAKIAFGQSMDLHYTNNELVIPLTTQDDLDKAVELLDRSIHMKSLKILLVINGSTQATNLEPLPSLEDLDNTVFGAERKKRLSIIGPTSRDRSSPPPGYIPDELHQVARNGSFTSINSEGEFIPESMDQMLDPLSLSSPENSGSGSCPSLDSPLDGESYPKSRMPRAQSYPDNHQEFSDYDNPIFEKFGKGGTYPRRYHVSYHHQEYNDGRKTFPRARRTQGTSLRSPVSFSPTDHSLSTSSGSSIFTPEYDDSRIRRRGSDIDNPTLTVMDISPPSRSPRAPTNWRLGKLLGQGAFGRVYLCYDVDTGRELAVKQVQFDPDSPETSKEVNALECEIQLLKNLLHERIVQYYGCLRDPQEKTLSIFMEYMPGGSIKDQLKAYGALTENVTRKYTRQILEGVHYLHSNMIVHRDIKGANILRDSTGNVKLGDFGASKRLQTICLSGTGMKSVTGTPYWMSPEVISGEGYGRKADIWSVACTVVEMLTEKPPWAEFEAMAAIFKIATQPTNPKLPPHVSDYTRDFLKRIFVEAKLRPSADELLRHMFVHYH
Conditions: MAP3K2, 1 μM; read-out: % control. The gist of the method: as §1

Experiment [3] deals with EGFR(L861Q) (Homo sapiens, UniProt P00533, L861Q). The following applies: read-out: % control. Put shortly: as §1
Sequence of EGFR(L861Q) (P00533 25-1210 L861Q): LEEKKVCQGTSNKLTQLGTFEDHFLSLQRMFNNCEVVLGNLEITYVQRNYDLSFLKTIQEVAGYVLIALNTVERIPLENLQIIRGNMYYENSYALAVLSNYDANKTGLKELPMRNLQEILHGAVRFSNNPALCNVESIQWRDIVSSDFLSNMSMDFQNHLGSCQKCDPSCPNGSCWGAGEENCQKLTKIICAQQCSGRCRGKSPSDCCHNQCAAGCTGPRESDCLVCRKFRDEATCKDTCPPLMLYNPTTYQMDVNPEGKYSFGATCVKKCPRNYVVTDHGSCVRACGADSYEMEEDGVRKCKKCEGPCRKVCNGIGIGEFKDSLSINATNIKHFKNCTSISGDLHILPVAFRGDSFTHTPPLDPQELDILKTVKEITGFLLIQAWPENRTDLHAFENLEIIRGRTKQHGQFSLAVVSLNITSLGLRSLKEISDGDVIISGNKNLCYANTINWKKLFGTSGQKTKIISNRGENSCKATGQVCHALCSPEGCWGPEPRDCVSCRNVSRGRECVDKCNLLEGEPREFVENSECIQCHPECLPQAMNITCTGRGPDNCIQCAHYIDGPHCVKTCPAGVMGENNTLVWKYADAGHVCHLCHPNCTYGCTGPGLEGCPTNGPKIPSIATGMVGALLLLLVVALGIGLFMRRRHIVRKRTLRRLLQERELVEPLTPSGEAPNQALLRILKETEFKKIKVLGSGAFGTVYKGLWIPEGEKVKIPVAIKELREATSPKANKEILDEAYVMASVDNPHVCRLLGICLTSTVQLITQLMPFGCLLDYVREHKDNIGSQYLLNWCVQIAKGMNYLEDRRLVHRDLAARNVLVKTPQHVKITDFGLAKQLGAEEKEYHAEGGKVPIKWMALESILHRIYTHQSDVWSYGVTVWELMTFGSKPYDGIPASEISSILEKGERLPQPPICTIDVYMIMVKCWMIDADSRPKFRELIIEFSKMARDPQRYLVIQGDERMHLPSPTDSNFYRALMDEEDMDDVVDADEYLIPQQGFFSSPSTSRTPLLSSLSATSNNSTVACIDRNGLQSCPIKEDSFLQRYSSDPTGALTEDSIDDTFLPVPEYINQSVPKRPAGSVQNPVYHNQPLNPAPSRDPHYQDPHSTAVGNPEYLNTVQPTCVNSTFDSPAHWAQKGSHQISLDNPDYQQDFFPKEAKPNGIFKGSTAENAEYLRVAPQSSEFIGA
The target in experiment [4] is PRKCH (Homo sapiens, UniProt P24723). Conditions: read-out: % control. Put shortly:
as §1

Experiment [5] addresses TRPM6 (Homo sapiens, UniProt Q9BX84). Conditions: TRPM6, 1 μM; read-out: % control. Put shortly: as §1
In experiment [6] the target is T2, IKK-epsilon (Homo sapiens, UniProt Q14164).
T2 construct: purchased KinomeScan®
T2 sequence (Q14164 1-716): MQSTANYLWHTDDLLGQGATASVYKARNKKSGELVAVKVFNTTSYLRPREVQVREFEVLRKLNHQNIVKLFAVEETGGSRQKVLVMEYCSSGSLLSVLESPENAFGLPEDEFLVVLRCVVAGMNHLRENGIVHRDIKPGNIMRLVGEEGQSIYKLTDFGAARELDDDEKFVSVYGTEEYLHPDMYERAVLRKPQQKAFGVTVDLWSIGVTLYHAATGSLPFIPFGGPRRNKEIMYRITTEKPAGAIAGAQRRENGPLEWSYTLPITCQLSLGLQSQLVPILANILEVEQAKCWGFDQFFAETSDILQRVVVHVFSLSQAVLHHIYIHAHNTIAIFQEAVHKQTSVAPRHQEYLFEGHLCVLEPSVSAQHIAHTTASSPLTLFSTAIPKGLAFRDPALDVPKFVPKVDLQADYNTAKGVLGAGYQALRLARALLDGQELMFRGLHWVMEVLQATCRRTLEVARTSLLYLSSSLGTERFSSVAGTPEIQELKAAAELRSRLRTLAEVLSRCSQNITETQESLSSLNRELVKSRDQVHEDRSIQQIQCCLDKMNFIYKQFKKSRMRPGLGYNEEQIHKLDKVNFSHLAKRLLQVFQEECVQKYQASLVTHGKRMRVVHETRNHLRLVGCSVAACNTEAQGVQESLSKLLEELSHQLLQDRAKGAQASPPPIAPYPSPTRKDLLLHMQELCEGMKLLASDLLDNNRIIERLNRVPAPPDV
Conditions: read-out: % control. The gist of the method:
as §1

Experiment [7] has as its target T3, SNARK (Homo sapiens, UniProt Q9H093).
T3 construct: purchased KinomeScan® (panel service)
T3 sequence (Q9H093 1-628): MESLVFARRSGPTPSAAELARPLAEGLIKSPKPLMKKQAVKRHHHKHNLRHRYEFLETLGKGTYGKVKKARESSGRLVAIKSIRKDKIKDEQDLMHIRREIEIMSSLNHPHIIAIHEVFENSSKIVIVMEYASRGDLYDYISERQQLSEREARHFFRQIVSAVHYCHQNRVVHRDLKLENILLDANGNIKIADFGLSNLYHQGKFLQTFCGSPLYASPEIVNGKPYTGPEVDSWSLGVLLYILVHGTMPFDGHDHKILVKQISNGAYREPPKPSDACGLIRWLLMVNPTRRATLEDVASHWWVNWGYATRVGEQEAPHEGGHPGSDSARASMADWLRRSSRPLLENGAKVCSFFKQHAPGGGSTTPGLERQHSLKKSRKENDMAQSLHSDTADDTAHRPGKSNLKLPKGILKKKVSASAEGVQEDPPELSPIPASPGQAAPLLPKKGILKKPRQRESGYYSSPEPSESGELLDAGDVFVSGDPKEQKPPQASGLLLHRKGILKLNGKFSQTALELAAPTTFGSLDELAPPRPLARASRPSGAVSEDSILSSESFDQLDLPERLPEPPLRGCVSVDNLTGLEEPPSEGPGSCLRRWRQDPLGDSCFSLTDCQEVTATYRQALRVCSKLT
The following applies: read-out: % control. The gist of the method:
as §1

Experiment [8] concerns the target MYLK (Homo sapiens, UniProt Q15746). The following applies: read-out: % control. The gist of the method: as §1
The target of experiment [9] is PFTK1 (Homo sapiens, UniProt O94921). Conditions: PFTK1, 1 μM; read-out: % control. The gist of the method: as §1
Sequence of PFTK1 (O94921 whole entry): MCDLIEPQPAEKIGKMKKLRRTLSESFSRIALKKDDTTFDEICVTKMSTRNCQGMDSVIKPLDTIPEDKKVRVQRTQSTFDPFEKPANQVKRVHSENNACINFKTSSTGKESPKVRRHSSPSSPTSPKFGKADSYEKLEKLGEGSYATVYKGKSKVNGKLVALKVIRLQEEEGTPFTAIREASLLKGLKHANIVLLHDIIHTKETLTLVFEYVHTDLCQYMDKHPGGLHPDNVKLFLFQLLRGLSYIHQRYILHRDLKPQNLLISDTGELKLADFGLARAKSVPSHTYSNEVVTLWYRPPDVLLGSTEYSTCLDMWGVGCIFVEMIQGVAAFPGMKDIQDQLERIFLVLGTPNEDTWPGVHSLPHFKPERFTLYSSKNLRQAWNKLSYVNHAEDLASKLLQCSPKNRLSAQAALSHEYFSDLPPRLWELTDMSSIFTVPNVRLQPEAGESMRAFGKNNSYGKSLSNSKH
For experiment [10], the target named is T4, KIT(D816V) (Homo sapiens, UniProt P10721, D816V).
T4 construct: purchased KinomeScan®
The following applies: read-out: % control. The gist of the method: as §1

Experiment [11] deals with PLK1 (Homo sapiens, UniProt P53350). Conditions: PLK1, 1 μM; read-out: % control. Put shortly: as §1
Experiment [12] concerns the target ERBB4 (Homo sapiens, UniProt Q15303). Conditions: ERBB4, 1 μM; read-out: % control. The gist of the method:
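Compounds were screened at 1 μM in DMSO across a 468-kinase KinomeScan panel. Binding was expressed as % control, scaled between a positive control (0%) and DMSO (100%) using luminescence signal. A value under 35% counted as active.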

Sequence of ERBB4 (Q15303 26-1308): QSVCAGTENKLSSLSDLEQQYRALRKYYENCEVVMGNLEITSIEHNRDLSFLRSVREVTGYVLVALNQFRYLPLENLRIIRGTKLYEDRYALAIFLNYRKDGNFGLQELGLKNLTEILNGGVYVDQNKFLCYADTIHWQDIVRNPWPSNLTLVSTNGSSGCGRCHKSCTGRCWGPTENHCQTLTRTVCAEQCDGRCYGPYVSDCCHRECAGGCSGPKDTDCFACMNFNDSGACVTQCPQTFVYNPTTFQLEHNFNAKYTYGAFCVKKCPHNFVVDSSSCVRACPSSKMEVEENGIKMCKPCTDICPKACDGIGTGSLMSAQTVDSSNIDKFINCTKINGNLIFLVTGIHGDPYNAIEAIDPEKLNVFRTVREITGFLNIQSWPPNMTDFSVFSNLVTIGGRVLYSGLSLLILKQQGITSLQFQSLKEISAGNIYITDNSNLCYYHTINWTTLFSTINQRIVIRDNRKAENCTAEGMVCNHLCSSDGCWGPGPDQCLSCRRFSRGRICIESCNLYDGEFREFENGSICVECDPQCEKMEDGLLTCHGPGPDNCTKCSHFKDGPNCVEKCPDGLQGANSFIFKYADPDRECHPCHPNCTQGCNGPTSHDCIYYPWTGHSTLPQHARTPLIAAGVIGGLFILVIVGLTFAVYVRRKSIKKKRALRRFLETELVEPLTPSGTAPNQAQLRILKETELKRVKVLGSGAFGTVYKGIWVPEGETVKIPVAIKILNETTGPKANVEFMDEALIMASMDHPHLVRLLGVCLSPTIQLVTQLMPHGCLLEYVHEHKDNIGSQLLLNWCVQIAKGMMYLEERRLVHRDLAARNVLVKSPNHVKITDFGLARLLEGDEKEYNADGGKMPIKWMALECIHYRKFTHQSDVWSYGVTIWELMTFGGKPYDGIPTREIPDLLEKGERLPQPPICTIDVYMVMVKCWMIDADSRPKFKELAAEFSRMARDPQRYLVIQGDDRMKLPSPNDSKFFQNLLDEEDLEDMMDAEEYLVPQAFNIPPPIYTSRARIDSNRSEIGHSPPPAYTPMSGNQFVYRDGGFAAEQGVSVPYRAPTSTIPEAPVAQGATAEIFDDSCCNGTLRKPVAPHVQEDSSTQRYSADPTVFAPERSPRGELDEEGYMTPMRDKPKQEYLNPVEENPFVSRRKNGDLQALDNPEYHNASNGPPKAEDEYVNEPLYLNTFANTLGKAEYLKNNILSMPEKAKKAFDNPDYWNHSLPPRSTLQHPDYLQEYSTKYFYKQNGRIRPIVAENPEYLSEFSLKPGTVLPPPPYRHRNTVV
Sequence of MYLK (Q15746 whole entry): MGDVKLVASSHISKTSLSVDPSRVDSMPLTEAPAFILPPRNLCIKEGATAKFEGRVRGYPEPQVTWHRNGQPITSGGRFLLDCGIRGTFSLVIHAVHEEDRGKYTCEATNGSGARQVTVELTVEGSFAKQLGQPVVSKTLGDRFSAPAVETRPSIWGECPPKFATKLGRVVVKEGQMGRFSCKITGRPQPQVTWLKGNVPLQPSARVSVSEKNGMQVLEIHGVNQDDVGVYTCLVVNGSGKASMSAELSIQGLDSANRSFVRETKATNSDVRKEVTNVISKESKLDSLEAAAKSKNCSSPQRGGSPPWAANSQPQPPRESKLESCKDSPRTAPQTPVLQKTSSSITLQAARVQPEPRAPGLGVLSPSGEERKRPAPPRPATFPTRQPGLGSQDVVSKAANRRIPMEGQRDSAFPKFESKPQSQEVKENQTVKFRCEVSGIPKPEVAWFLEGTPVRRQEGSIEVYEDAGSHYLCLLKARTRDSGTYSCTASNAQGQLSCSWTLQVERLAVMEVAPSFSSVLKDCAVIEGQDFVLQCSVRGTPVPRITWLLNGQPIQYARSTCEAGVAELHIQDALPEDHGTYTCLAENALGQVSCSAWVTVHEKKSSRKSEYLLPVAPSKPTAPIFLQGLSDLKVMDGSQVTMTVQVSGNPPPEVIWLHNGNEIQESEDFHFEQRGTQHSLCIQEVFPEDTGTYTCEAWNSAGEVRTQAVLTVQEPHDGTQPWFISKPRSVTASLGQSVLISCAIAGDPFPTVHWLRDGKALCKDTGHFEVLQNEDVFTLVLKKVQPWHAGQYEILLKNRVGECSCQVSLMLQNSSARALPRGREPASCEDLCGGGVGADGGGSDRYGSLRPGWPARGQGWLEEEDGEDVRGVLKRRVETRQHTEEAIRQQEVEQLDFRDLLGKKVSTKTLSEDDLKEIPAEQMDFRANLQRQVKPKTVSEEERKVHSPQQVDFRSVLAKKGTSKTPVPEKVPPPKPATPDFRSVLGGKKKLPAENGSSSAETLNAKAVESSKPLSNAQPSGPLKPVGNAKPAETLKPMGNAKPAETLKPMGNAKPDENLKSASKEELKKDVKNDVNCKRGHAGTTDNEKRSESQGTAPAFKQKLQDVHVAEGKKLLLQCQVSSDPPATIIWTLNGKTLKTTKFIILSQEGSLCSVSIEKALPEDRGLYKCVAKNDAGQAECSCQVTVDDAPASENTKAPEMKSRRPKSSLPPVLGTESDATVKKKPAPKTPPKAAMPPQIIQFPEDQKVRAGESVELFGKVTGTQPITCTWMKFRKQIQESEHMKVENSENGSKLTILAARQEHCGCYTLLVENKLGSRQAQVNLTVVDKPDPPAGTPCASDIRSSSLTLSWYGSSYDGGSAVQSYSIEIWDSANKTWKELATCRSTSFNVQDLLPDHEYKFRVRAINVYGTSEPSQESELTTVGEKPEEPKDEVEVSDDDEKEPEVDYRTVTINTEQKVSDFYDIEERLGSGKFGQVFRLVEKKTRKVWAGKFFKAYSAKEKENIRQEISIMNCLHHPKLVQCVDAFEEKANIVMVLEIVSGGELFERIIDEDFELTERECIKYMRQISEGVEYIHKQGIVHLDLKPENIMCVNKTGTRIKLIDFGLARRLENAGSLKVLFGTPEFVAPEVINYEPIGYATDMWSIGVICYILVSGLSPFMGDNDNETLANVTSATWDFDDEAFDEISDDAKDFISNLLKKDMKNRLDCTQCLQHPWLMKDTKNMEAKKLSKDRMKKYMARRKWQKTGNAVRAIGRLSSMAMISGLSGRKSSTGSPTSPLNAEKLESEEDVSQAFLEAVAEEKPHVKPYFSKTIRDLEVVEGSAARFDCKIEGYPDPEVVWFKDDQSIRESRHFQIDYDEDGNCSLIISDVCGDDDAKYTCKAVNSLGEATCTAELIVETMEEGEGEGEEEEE

With `CNc1c(-c2ccc(C(=O)N3CCC(N4CCOCC4)CC3)cc2)cnc2[nH]cc(Cl)c12` [Compound 96, (4-(3-chloro-4-(methylamino)-1H-pyrrolo[2,3-b]pyridin-5-yl)phenyl)(4-morpholinopiperidin-1-yl)methanone], the remaining binding at 1 µM stood at 70% in [1]; 29% in [2]; 90% in experiment [3]; 92% in experiment [4]; 82% in [5]; 68% in [6]. The remaining binding at 1 µM in experiment [7] was found to be 64%; in experiment [8] it was 85%; in experiment [9] it was 100%; in experiment [10] it was 86%; in experiment [11], 64%; in experiment [12], 100%.
On to `O=C(c1ccc(-c2cnc3[nH]cc(Cl)c3c2NC2CCCC2)cc1)N1CCC(N2CCOCC2)CC1` [Compound 101, (4-(3-chloro-4-(cyclopentylamino)-1H-pyrrolo[2,3-b]pyridin-5-yl)phenyl)(4-morpholinopiperidin-1-yl)methanone], for which the remaining binding at 1 µM was found to be 82% in [1]; 35% in experiment [2]; 89% in experiment [3]; 73% in [4]; 100% in experiment [5]; 99% in [6]. Besides, the remaining binding at 1 µM in experiment [7] stood at 33%; in experiment [8] it was 83%; in [9], 100%; in experiment [10], 95%; in experiment [11], 98%; in experiment [12], 97%.
Regarding `CNc1c(-c2cnn([C@H]3CCN(C(C)=O)C[C@@H]3F)c2)cnc2[nH]cc(Cl)c12` [Compound 77, 1-((3S,4S)-4-(4-(3-chloro-4-(methylamino)-1H-pyrrolo[2,3-b]pyridin-5-yl)-1H-pyrazol-1-yl)-3-fluoropiperidin-1-yl)ethan-1-one], the remaining binding at 1 µM in experiment [1] was determined as 68%; in experiment [2], 25%; in [3], 96%; in [4] it was 83%; in experiment [5] it was 89%; in [6], 64%. Also, the remaining binding at 1 µM in experiment [7] came out at 96%; in experiment [8] it was 72%; in experiment [9], 100%; in experiment [10] it was 46%; in [11], 65%; in [12] it was 100%.
